Assay results taken from US10150982B2, “Microbial ecology shift assay” (Second Genome, Inc., priority 2013, dated 2018).

Experiments:
[1] = test system: microbiota of human donor fecal samples; assay: MESA microplate experiments (16S rRNA V4 sequencing, PCoA/Unifrac); type: cell-based; conditions: 24 hours anaerobic
Experimental: A fecal sample was obtained from each of three human donors, Donor 1, Donor 2, and Donor 3. 1 gram of each fecal sample was added to 10 mL phosphate buffered saline (PBS) to form three separate slurries of 10% (w/v) fecal sample. A total of 36 experiments was setup on a 48-well plate (referred to herein as “microplate experiments”). For each slurry obtained from Donor 1 Donor 2, or Donor 3, 40 μL of the respective slurry was added to each of twelve wells of the plate. For each of these 12 wells, 360 μL of water (control), water comprising fructose, or water comprising fructose oligosaccharide (FOS) were added. After addition of water, three of the twelve wells comprised slurry+water; three of the twelve wells comprised slurry+2% w/v fructose+water; three of the twelve wells comprised slurry+0.5% w/v FOS+water; and three of the twelve wells comprised slurry+2% w/v FOS+water. In Table 1, “Donor 1” represents slurry from Donor 1, “Donor 2” represents slurry from Donor 2, and “Donor 3” represents slurry from Donor 3. The microplate was then incubated for 24 hours in an anaerobic chamber under 80% nitrogen, 10% carbon dioxide, and 10% hydrogen (H2). A total of 8 experiments were prepared each in a vial (referred to herein as “tube experiments”). 200 μL of slurry from Donor 1 was added to each of the 8 vials. In 4 of the vials, 1.8 mL of water comprising FOS was added for a final concentration of 2% w/v FOS. For the other four vials, 1.8 mL of water (control) was added. Two of the vials comprising FOS and the two vials comprising water are incubated for 24 hours in an anaerobic chamber (comprising 80% nitrogen, 10% carbon dioxide, and 10% hydrogen (H2)) at 37° C. The other four vials are incubated for 16 hours. DNA was extracted from each sample (well or tube) and quantified using a PicoGreen method. DNA is also extracted from an aliquot of each slurry obtained from Donor 1, Donor 2, and Donor 3. DNA comprising the variable region (V4) region of the 16S rRNA gene was amplified and sequenced using the MiSeq platform from Ilumina. Principle component analyses (PCoA) were performed to identify Unifrac distances (degree of similarity/dissimilarity) of the different treatment groups. Relative taxa representation for the various treatment groups was determined at the phylum, class, order, family, genus and species levels using operational taxonomic units (OTUs) by comparing results to the GreenGenes database.

[2] = test system: microbiota of human donor fecal samples; assay: MESA tube experiments (16S rRNA V4 sequencing, PCoA/Unifrac); type: cell-based; conditions: 2% FOS
Experimental: A fecal sample was obtained from each of three human donors, Donor 1, Donor 2, and Donor 3. 1 gram of each fecal sample was added to 10 mL phosphate buffered saline (PBS) to form three separate slurries of 10% (w/v) fecal sample. A total of 36 experiments was setup on a 48-well plate (referred to herein as “microplate experiments”). For each slurry obtained from Donor 1 Donor 2, or Donor 3, 40 μL of the respective slurry was added to each of twelve wells of the plate. For each of these 12 wells, 360 μL of water (control), water comprising fructose, or water comprising fructose oligosaccharide (FOS) were added. After addition of water, three of the twelve wells comprised slurry+water; three of the twelve wells comprised slurry+2% w/v fructose+water; three of the twelve wells comprised slurry+0.5% w/v FOS+water; and three of the twelve wells comprised slurry+2% w/v FOS+water. In Table 1, “Donor 1” represents slurry from Donor 1, “Donor 2” represents slurry from Donor 2, and “Donor 3” represents slurry from Donor 3. […] DNA was extracted from each sample (well or tube) and quantified using a PicoGreen method. […] Relative taxa representation for the various treatment groups was determined at the phylum, class, order, family, genus and species levels using operational taxonomic units (OTUs) by comparing results to the GreenGenes database.

[3] = Donor 1, 2% w/v agent, n=3, FIG. 2
[4] = Donor 2, 2% w/v agent, n=3, FIG. 3
[5] = Donor 3, 2% w/v agent, n=3, FIG. 4

Compound	shift in microbiota profile (PCoA, Unifrac distances) [1, 3]	shift in microbiota profile (PCoA, Unifrac distances) [1, 4]	shift in microbiota profile (PCoA, Unifrac distances) [1, 5]	shift in microbiota profile (PCoA, Unifrac distances) ([1]; Donor 1, 0.5% w/v agent, n=3, FIG. 2)	shift in microbiota profile (PCoA, Unifrac distances) ([1]; Donor 2, 0.5% w/v agent, n=3, FIG. 3)	shift in microbiota profile (PCoA, Unifrac distances) ([1]; Donor 3, 0.5% w/v agent, n=3, FIG. 4)	shifts in microbial communities between the two assay formats ([2]; 24 hour incubation, tube (n=2) vs microplate (n=3), FIG. 6)	shifts in microbial communities between the two incubation times ([2]; Donor 1, 16 hour vs 24 hour incubation, tube, n=2, FIG. 5)
O=C(CO)[C@@H](O)[C@H](O)[C@H](O)CO [fructose]	shift microbiota differently from controls	shift microbiota differently from controls	shift microbiota differently from controls					
fructose oligosaccharide [FOS]	shift microbiota differently from controls	shift microbiota differently from controls	shift microbiota differently from controls	shift microbiota differently from controls	shift microbiota differently from controls	shift microbiota differently from controls	similar	similar
